Measured values taken from patent publication US11596639B2, “Substituted indole Mcl-1 inhibitors” (Vanderbilt University, priority 2016, dated 2023).
pKi: −log10 of the molar value.

Experiments:
[1] = tested on: H929 human cancer cell lines; test: Cellular viability / proliferation (Cell TiterGlo, 72 h); type: cell-based; details: Homo sapiens, NCI-H929, 72 h, read-out: GI50 on cellular proliferation of H929 human cancer cell lines, H929 cells, 72 h, Cell TiterGlo, 10% FBS
How it was run: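 Top dose 50 μM, serially diluted 2-fold, applied one day after seeding (1,000 cells/well, 10% FBS), DMSO below 1%.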

Mcl-1 = Mcl-1 (Homo sapiens (Human), UniProt Q07820); test: Fluorescence polarization anisotropy (FPA) competition assay, FITC-Bak or FITC-Bim BH3 peptide; type: binding; details: read-out: Ki for Inhibition of Mcl-1 by FPA assay
Chain of Mcl-1 (Q07820 172-327): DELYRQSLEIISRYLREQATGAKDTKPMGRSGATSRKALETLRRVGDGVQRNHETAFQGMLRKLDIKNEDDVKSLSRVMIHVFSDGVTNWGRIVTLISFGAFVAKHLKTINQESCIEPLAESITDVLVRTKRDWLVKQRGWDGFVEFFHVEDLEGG

Row | Compound | GI50 [1] | pKi (Mcl-1)
1 | Cc1cc(OCCCc2c3n(c4c(-c5c(C)nn(C)c5C)c(Cl)ccc24)[C@H](C)CN(c2cccc4c(C(=O)O)nn(C)c24)C3=O)cc(C)c1Cl [Example 59, (R)-7-(7-chloro-10-(3-(4-chloro-3,5-dimethylphenoxy)propyl)-4-methyl-1-oxo-6-(1,3,5-trimethyl-1H-pyrazol-4-yl)-3,4-dihydropyrazino[1,2-a]indol-2(1H)-yl)-1-methyl-1H-indazole-3-carboxylic acid] | 280 nM | > 9.00
2 | Cc1cc(N2C[C@@H](C)n3c(c(CCCOc4cc(C)c(Cl)c(C)c4)c4ccc(Cl)c(-c5c(C)nn(C)c5C)c43)C2=O)c2c(c1)c(C)c(C(=O)O)n2C [Example 336, (R)-7-(7-Chloro-10-(3-(4-chloro-3,5-dimethylphenoxy)propyl)-4-methyl-1-oxo-6-(1,3,5-trimethyl-1H-pyrazol-4-yl)-3,4-dihydropyrazino[1,2-a]indol-2(1H)-yl)-1,3,5-trimethyl-1H-indole-2-carboxylic acid] | 250 nM | > 9.00
3 | Cc1cc(OCCCc2c3n(c4c(-c5c(C)nn(C)c5C)c(Cl)ccc24)[C@H](C)CN(c2cccc4cc5n(c24)CCN(C)C5=O)C3=O)cc(C)c1Cl [Example 226, (4R)-7-chloro-10-[3-(4-chloro-3,5-dimethyl-phenoxy)propyl]-4-methyl-2-(2-methyl-1-oxo-3,4-dihydropyrazino[1,2-a]indol-6-yl)-6-(1,3,5-trimethylpyrazol-4-yl)-3,4-dihydropyrazino[1,2-a]indol-1-one] | 2600 nM | 8.31
4 | COc1cccc(Cn2c(C(=O)O)cc3cccc(N4C[C@@H](C)n5c(c(CCCOc6cc(C)c(Cl)c(C)c6)c6ccc(Cl)c(-c7c(C)nn(C)c7C)c65)C4=O)c32)n1 [Example 360, (R)-7-(7-Chloro-10-(3-(4-chloro-3,5-dimethylphenoxy)propyl)-4-methyl-1-oxo-6-(1,3,5-trimethyl-1H-pyrazol-4-yl)-3,4-dihydropyrazino[1,2-a]indol-2(1H)-yl)-1-((6-methoxypyridin-2-yl)methyl)-1H-indole-2-carboxylic acid] | 2500 nM | 8.60
5 | Cc1cc(OCCCc2c3n(c4c(-c5c(C)nn(C)c5C)c(Cl)ccc24)[C@H](C)CN(c2cn(C(C)C)c4ccc(C(=O)O)cc24)C3=O)cc(C)c1Cl [Example 166, (R)-3-(7-Chloro-10-(3-(4-chloro-3,5-dimethylphenoxy)propyl)-4-methyl-1-oxo-6-(1,3,5-trimethyl-1H-pyrazol-4-yl)-3,4-dihydropyrazino[1,2-a]indol-2(1H)-yl)-1-isopropyl-1H-indole-5-carboxylic acid] | 1400 nM | > 9.00
6 | Cc1cc(OCCCc2c3n(c4c(-c5c(C)nn(C)c5C)c(Cl)ccc24)CCCN(c2cccc4c(-c5nn[nH]n5)cn(C)c24)C3=O)cc(C)c1Cl [Example 15, 8-Chloro-11-[3-(4-chloro-3,5-dimethyl-phenoxy)propyl]-2-[1-methyl-3-(2H-tetrazol-5-yl)indol-7-yl]-7-(1,3,5-trimethylpyrazol-4-yl)-4,5-dihydro-3H-[1,4]diazepino[1,2-a]indol-1-one] | 11000 nM | 8.66
7 | Cc1cc(OCCCc2c3n(c4c(-c5c(C)ncnc5C)c(Cl)ccc24)[C@H](C)CN(c2cccc4c(C(=O)O)cccc24)C3=O)cc(C)c1Cl [Example 148, 5-[(4R)-7-chloro-10-[3-(4-chloro-3,5-dimethyl-phenoxy)propyl]-6-(4,6-dimethylpyrimidin-5-yl)-4-methyl-1-oxo-3,4-dihydropyrazino[1,2-a]indol-2-yl]naphthalene-1-carboxylic acid] | 650 nM | > 9.00
8 | CCn1cc(N2C[C@@H](C)n3c(c(CCCOc4cc(C)c(Cl)c(C)c4)c4ccc(Cl)c(-c5c(C)nn(C)c5C)c43)C2=O)c2ccc(C(=O)O)cc21 [Example 104, (R)-3-(7-Chloro-10-(3-(4-chloro-3,5-dimethylphenoxy)propyl)-4-methyl-1-oxo-6-(1,3,5-trimethyl-1H-pyrazol-4-yl)-3,4-dihydropyrazino[1,2-a]indol-2(1H)-yl)-1-ethyl-1H-indole-6-carboxylic acid] | 570 nM | > 9.00
9 | Cc1cc(OCCCc2c3n(c4c(-c5c(C)ncnc5C)c(Cl)ccc24)CCCN(c2cccc4cc(C(=O)O)ccc24)C3=O)cc(C)c1Cl [Example 213, 5-[8-Chloro-11-[3-(4-chloro-3,5-dimethyl-phenoxy)propyl]-7-(4,6-dimethylpyrimidin-5-yl)-1-oxo-4,5-dihydro-3H-[1,4]diazepino[1,2-a]indol-2-yl]naphthalene-2-carboxylic acid] | < 200 nM | > 9.00
10 | Cc1cc(OCCCc2c3n(c4c(-c5c(C)nn(C)c5C)c(Cl)ccc24)[C@H](C)CN(c2cn(C)c4ccc(C(=O)O)cc24)C3=O)ccc1Cl [Example 407, (R)-3-(7-Chloro-10-(3-(4-chloro-3-methylphenoxy)propyl)-4-methyl-1-oxo-6-(1,3,5-trimethyl-1H-pyrazol-4-yl)-3,4-dihydropyrazino[1,2-a]indol-2(1H)-yl)-1-methyl-1H-indole-5-carboxylic acid] | 490 nM | 8.96
11 | Cc1cc(OCCCc2c3n(c4c(-c5c(C)nn(C)c5C)c(Cl)ccc24)[C@H](C)CN(c2cc4ccc(C(=O)O)cc4n2C)C3=O)cc(C)c1Cl [Example 180, 2-[(4R)-7-chloro-10-[3-(4-chloro-3,5-dimethyl-phenoxy)propyl]-4-methyl-1-oxo-6-(1,3,5-trimethylpyrazol-4-yl)-3,4-dihydropyrazino[1,2-a]indol-2-yl]-1-methyl-indole-6-carboxylic acid] | 1500 nM | 8.68
12 | Cc1cc(OCCCc2c3n(c4c(-c5c(C)nn(C)c5C)c(Cl)ccc24)[C@H](C)CN(c2cn(C)c4c(C)c(C(=O)O)ccc24)C3=O)cc(C)c1Cl [Example 250, (R)-3-(7-Chloro-10-(3-(4-chloro-3,5-dimethylphenoxy)propyl)-4-methyl-1-oxo-6-(1,3,5-trimethyl-1H-pyrazol-4-yl)-3,4-dihydropyrazino[1,2-a]indol-2(1H)-yl)-1,7-dimethyl-1H-indole-6-carboxylic acid] | 480 nM | > 9.00
13 | Cc1cc(N2C[C@@H](C)n3c(c(CCCOc4cc(C)c(Cl)c(C)c4)c4ccc(Cl)c(-c5c(C)nn(C)c5C)c43)C2=O)c2c(c1)cc(C(=O)O)n2C [Example 201, (R)-7-(7-Chloro-10-(3-(4-chloro-3,5-dimethylphenoxy)propyl)-4-methyl-1-oxo-6-(1,3,5-trimethyl-1H-pyrazol-4-yl)-3,4-dihydropyrazino[1,2-a]indol-2(1H)-yl)-1,5-dimethyl-1H-indole-2-carboxylic acid] | < 200 nM | > 9.00
14 | COc1ccc(N2C[C@@H](C)n3c(c(CCCOc4cc(C)c(Cl)c(C)c4)c4ccc(Cl)c(-c5c(C)ncnc5C)c43)C2=O)c2c1cc(C(=O)O)n2Cc1ccccn1 [Example 302, 7-[(4R)-7-chloro-10-[3-(4-chloro-3,5-dimethyl-phenoxy)propyl]-6-(4,6-dimethylpyrimidin-5-yl)-4-methyl-1-oxo-3,4-dihydropyrazino[1,2-a]indol-2-yl]-4-methoxy-1-(2-pyridylmethyl)indole-2-carboxylic acid] | < 200 nM | > 9.00
